Test results published in patent US8580794B2 (AbbVie Inc., priority 2009, dated 2013).

biological target: GST-Bc1-2 (Homo sapiens, UniProt P10415); assay: Time Resolved-Fluorescence Resonance Energy Transfer (TR-FRET) Bcl-2 binding assay with F-Bak peptide probe; conditions: GST-Bcl-2 1 nM, F-Bak probe 100 nM, Tb-anti-GST 1 nM; '<' = below limit of detection; read-out: TR-FRET Bcl-2 Binding Ki
Sequence (P10415 whole entry): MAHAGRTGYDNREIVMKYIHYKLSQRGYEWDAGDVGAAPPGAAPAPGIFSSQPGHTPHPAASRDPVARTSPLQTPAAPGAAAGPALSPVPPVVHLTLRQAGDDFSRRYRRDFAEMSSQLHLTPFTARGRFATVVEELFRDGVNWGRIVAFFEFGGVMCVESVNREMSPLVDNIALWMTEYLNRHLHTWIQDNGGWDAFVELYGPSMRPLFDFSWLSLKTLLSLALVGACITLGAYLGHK

Compound	Ki [pM]
CC1(C)CCC(CN2CCN(c3ccc(C(=O)NS(=O)(=O)c4ccc(OCC5(F)CCOCC5)c(Cl)c4)c(Oc4cnc5[nH]ccc5c4)c3)CC2)=C(c2ccc(Cl)cc2)C1 [Example 286, N-({3-chloro-4-[(4-fluorotetrahydro-2H-pyran-4-yl)methoxy]phenyl}sulfonyl)-4-(4-{[2-(4-chlorophenyl)-4,4-dimethylcyclohex-1-en-1-yl]methyl}piperazin-1-yl)-2-(1H-pyrrolo[2,3-b]pyridin-5-yloxy)benzamide]	< 10
CC1(C)CCC(CN2CCN(c3ccc(C(=O)NS(=O)(=O)c4cnc(OCC5CCC(F)(F)CC5)c(Cl)c4)c(Oc4cnc5[nH]ccc5c4)c3)CC2)=C(c2ccc(Cl)cc2)C1 [Example 287, N-({5-chloro-6-[(4,4-difluorocyclohexyl)methoxy]pyridin-3-yl}sulfonyl)-4-(4-{[2-(4-chlorophenyl)-4,4-dimethylcyclohex-1-en-1-yl]methyl}piperazin-1-yl)-2-(1H-pyrrolo[2,3-b]pyridin-5-yloxy)benzamide]	81
CC1(C)CCC(CN2CCN(c3ccc(C(=O)NS(=O)(=O)c4cnc(OCC5(F)CCN(C(CF)CF)CC5)c(C(F)(F)F)c4)c(Oc4cnc5[nH]ccc5c4)c3)CC2)=C(c2ccc(Cl)cc2)C1 [Example 288, 4-(4-{[2-(4-chlorophenyl)-4,4-dimethylcyclohex-1-en-1-yl]methyl}piperazin-1-yl)-N-{[6-{[1-(1,3-difluoropropan-2-yl)-4-fluoropiperidin-4-yl]methoxy}-5-(trifluoromethyl)pyridin-3-yl]sulfonyl}-2-(1H-pyrrolo[2,3-b]pyridin-5-yloxy)benzamide]	251
CC1(C)CCC(CN2CCN(c3ccc(C(=O)NS(=O)(=O)c4cnc(OCCC5CCCO5)c(Cl)c4)c(Oc4cnc5[nH]ccc5c4)c3)CC2)=C(c2ccc(Cl)cc2)C1 (stereo not shown) [Example 289, 4-(4-{[2-(4-chlorophenyl)-4,4-dimethylcyclohex-1-en-1-yl]methyl}piperazin-1-yl)-N-({5-chloro-6-[2-(tetrahydrofuran-2-yl)ethoxy]pyridin-3-yl}sulfonyl)-2-(1H-pyrrolo[2,3-b]pyridin-5-yloxy)benzamide]	90
CC1CN(c2ccc(C(=O)NS(=O)(=O)c3ccc(NCC4CCOCC4)c([N+](=O)[O-])c3)c(Oc3cnc4[nH]ccc4c3)c2)CCN1CC1=C(c2ccc(Cl)cc2)CC(C)(C)CC1 (stereo not shown) [Example 290, 4-(4-{[2-(4-chlorophenyl)-4,4-dimethylcyclohex-1-en-1-yl]methyl}-3-methylpiperazin-1-yl)-N-({3-nitro-4-[(tetrahydro-2H-pyran-4-ylmethyl)amino]phenyl}sulfonyl)-2-(1H-pyrrolo[2,3-b]pyridin-5-yloxy)benzamide]	< 10
CC1(C)CCC(CN2CCN(c3ccc(C(=O)NS(=O)(=O)c4ccc(NCCCNC5CC5)c([N+](=O)[O-])c4)c(Oc4cnc5[nH]ccc5c4)c3)CC2)=C(c2ccc(Cl)cc2)C1 [Example 291, 4-(4-{[2-(4-chlorophenyl)-4,4-dimethylcyclohex-1-en-1-yl]methyl}piperazin-1-yl)-N-[(4-{[3-(cyclopropylamino)propyl]amino}-3-nitrophenyl)sulfonyl]-2-(1H-pyrrolo[2,3-b]pyridin-5-yloxy)benzamide]	< 10
COCCOc1ncc(S(=O)(=O)NC(=O)c2ccc(N3CCN(CC4=C(c5ccc(Cl)cc5)CC(C)(C)CC4)CC3)cc2Oc2cnc3[nH]ccc3c2)cc1Cl [Example 292, N-{[5-chloro-6-(2-methoxyethoxy)pyridin-3-yl]sulfonyl}-4-(4-{[2-(4-chlorophenyl)-4,4-dimethylcyclohex-1-en-1-yl]methyl}piperazin-1-yl)-2-(1H-pyrrolo[2,3-b]pyridin-5-yloxy)benzamide]	190
CC1(C)CCC(CN2CCN(c3ccc(C(=O)NS(=O)(=O)c4cnc(OCC5CCOCC5)c(F)c4)c(Oc4cnc5[nH]ccc5c4)c3)CC2)=C(c2ccc(Cl)cc2)C1 [Example 293, 4-(4-{[2-(4-chlorophenyl)-4,4-dimethylcyclohex-1-en-1-yl]methyl}piperazin-1-yl)-N-{[5-fluoro-6-(tetrahydro-2H-pyran-4-ylmethoxy)pyridin-3-yl]sulfonyl}-2-(1H-pyrrolo[2,3-b]pyridin-5-yloxy)benzamide]	93
COCC(=O)N1CCC(COc2ccc(S(=O)(=O)NC(=O)c3ccc(N4CCN(CC5=C(c6ccc(Cl)cc6)CC(C)(C)CC5)CC4)cc3Oc3cnc4[nH]ccc4c3)cc2Cl)CC1 [Example 294, N-[(3-chloro-4-{[1-(methoxyacetyl)piperidin-4-yl]methoxy}phenyl)sulfonyl]-4-(4-{[2-(4-chlorophenyl)-4,4-dimethylcyclohex-1-en-1-yl]methyl}piperazin-1-yl)-2-(1H-pyrrolo[2,3-b]pyridin-5-yloxy)benzamide]	46
CN(C)CC(=O)N1CCC(COc2ccc(S(=O)(=O)NC(=O)c3ccc(N4CCN(CC5=C(c6ccc(Cl)cc6)CC(C)(C)CC5)CC4)cc3Oc3cnc4[nH]ccc4c3)cc2Cl)CC1 [Example 295, N-[(3-chloro-4-{[1-(N,N-dimethylglycyl)piperidin-4-yl]methoxy}phenyl)sulfonyl]-4-(4-{[2-(4-chlorophenyl)-4,4-dimethylcyclohex-1-en-1-yl]methyl}piperazin-1-yl)-2-(1H-pyrrolo[2,3-b]pyridin-5-yloxy)benzamide]	< 10
CC1(C)CCC(CC2CCN(c3ccc(C(=O)NS(=O)(=O)c4ccc(NCC5CCOCC5)c([N+](=O)[O-])c4)c(Oc4cnc5[nH]ccc5c4)c3)CC2)C(c2ccc(Cl)cc2)C1 (stereo not shown) [Example 296, 4-(4-{[2-(4-chlorophenyl)-4,4-dimethylcyclohexyl]methyl}piperidin-1-yl)-N-({3-nitro-4-[(tetrahydro-2H-pyran-4-ylmethyl)amino]phenyl}sulfonyl)-2-(1H-pyrrolo[2,3-b]pyridin-5-yloxy)benzamide]	512
CC1(C)CCC(CN2CCN(c3ccc(C(=O)NS(=O)(=O)c4cnc(OCC5CCOCC5)c(C(F)(F)F)c4)c(Oc4cnc5[nH]ccc5c4)c3)CC2)=C(c2ccc(Cl)cc2)C1 [Example 297, 4-(4-{[2-(4-chlorophenyl)-4,4-dimethylcyclohex-1-en-1-yl]methyl}piperazin-1-yl)-2-(1H-pyrrolo[2,3-b]pyridin-5-yloxy)-N-{[6-(tetrahydro-2H-pyran-4-ylmethoxy)-5-(trifluoromethyl)pyridin-3-yl]sulfonyl}benzamide]	174
CC1(C)CCC(CN2CCN(c3ccc(C(=O)NS(=O)(=O)c4cnc(OC[C@H]5CC[C@H](O)CC5)c(Cl)c4)c(Oc4cnc5[nH]ccc5c4)c3)CC2)=C(c2ccc(Cl)cc2)C1 [Example 298, N-({5-chloro-6-[(trans-4-hydroxycyclohexyl)methoxy]pyridin-3-yl}sulfonyl)-4-(4-{[2-(4-chlorophenyl)-4,4-dimethylcyclohex-1-en-1-yl]methyl}piperazin-1-yl)-2-(1H-pyrrolo[2,3-b]pyridin-5-yloxy)benzamide]	< 10
CC1(C)CCC(CN2CCN(c3ccc(C(=O)NS(=O)(=O)c4ccc(OCC5(F)CCOCC5)c(C#N)c4)c(Oc4cnc5[nH]ccc5c4)c3)CC2)=C(c2ccc(Cl)cc2)C1 [Example 299, 4-(4-{[2-(4-chlorophenyl)-4,4-dimethylcyclohex-1-en-1-yl]methyl}piperazin-1-yl)-N-({3-cyano-4-[(4-fluorotetrahydro-2H-pyran-4-yl)methoxy]phenyl}sulfonyl)-2-(1H-pyrrolo[2,3-b]pyridin-5-yloxy)benzamide]	39
CC1(C)CCC(CC2CCN(c3ccc(C(=O)NS(=O)(=O)c4cnc(OCC5(O)CCC(F)(F)CC5)c(Cl)c4)c(Oc4cnc5[nH]ccc5c4)c3)CC2)=C(c2ccc(Cl)cc2)C1 [Example 302, N-({5-chloro-6-[(4,4-difluoro-1-hydroxycyclohexyl)methoxy]pyridin-3-yl}sulfonyl)-4-(4-{[2-(4-chlorophenyl)-4,4-dimethylcyclohex-1-en-1-yl]methyl}piperidin-1-yl)-2-(1H-pyrrolo[2,3-b]pyridin-5-yloxy)benzamide]	332
CC1(C)CCC(CN2CCN(c3ccc(C(=O)NS(=O)(=O)c4ccc(OC[C@H]5CC[C@H](N6CCOCC6)CC5)c(Cl)c4)c(Oc4cnc5[nH]ccc5c4)c3)CC2)=C(c2ccc(Cl)cc2)C1 [Example 303, N-[(3-chloro-4-{[trans-4-(morpholin-4-yl)cyclohexyl]methoxy}phenyl)sulfonyl]-4-(4-{[2-(4-chlorophenyl)-4,4-dimethylcyclohex-1-en-1-yl]methyl}piperazin-1-yl)-2-(1H-pyrrolo[2,3-b]pyridin-5-yloxy)benzamide]	44
CC1(C)CCC(CN2CCN(c3ccc(C(=O)NS(=O)(=O)c4ccc(OC[C@H]5CC[C@H](O)CC5)c(Cl)c4)c(Oc4cnc5[nH]ccc5c4)c3)CC2)=C(c2ccc(Cl)cc2)C1 [Example 305, N-({3-chloro-4-[(trans-4-hydroxycyclohexyl)methoxy]phenyl}sulfonyl)-4-(4-{[2-(4-chlorophenyl)-4,4-dimethylcyclohex-1-en-1-yl]methyl}piperazin-1-yl)-2-(1H-pyrrolo[2,3-b]pyridin-5-yloxy)benzamide]	33
CC1(C)CCC(CN2CCN(c3ccc(C(=O)NS(=O)(=O)c4ccc(NCC5CCOCC5)c(Cl)c4)c(Oc4cnc5[nH]ccc5c4)c3)CC2)=C(c2ccc(Cl)cc2)C1 [Example 306, 4-(4-{[2-(4-chlorophenyl)-4,4-dimethylcyclohex-1-en-1-yl]methyl}piperazin-1-yl)-N-({3-chloro-4-[(tetrahydro-2H-pyran-4-ylmethyl)amino]phenyl}sulfonyl)-2-(1H-pyrrolo[2,3-b]pyridin-5-yloxy)benzamide]	2070
CC1(C)CCC(CN2CCN(c3ccc(C(=O)NS(=O)(=O)c4ccc(OCC5(F)CCOCC5)c(C(F)(F)F)c4)c(Oc4cnc5[nH]ccc5c4)c3)CC2)=C(c2ccc(Cl)cc2)C1 [Example 307, 4-(4-{[2-(4-chlorophenyl)-4,4-dimethylcyclohex-1-en-1-yl]methyl}piperazin-1-yl)-N-({4-[(4-fluorotetrahydro-2H-pyran-4-yl)methoxy]-3-(trifluoromethyl)phenyl}sulfonyl)-2-(1H-pyrrolo[2,3-b]pyridin-5-yloxy)benzamide]	130
